Experimental data: patent US9364448B2, “Nitisinone for treatment of oculocutaneous/ocular albinism and for increasing pigmentation” (The United States of America, as represented by the …, priority 2010, dated 2016)

Key:
[1] = test system: C57BL/6J-Tyr^c-2J/c-2J mice (OCA1a model); test: Plasma tyrosine in NTBC-treated Tyr^c-2J/c-2J mice; format: in vivo, mouse
Description: Drug Dosing and Monitoring. […] Plasma tyrosine was assayed from retro-orbital blood taken from mice at 1 week, and 4 weeks into treatment. Because the volume of blood that could be obtained from non-terminal bleeds was small, the plasma from 2-3 mice was pooled to make a single measurement. Plasma samples were frozen immediately after collection on dry ice. Samples ready for assay were gently thawed, diluted with an equal volume of loading buffer (0.2 M lithium citrate, pH 2.2), and filtered using Vivaspin 500 (3000 Da molecular weight cut-off, Sartorius Stedman Biotech, Goettingen, Germany) spun in a fixed angle centrifuge at about 14000×g for 60 minutes at a temperature of about 16-20° C. The supernatant was collected and tyrosine was quantitated on a Biochrom 30 […] (Biochrom, Ltd., Cambridge, UK) using the manufacturer's specifications. At the beginning of the study, baseline plasma concentrations of tyrosine, coat color (gross and microscopic), anterior segment pigment, and posterior segment pigment were documented for each mouse prior to initiating experiments. […] It is known that a possible side effect of NTBC treatment is corneal irritation, which is monitored daily. […] At the end of four weeks time, plasma tyrosine concentrations were assessed in both treated and control animals.

[2] = test system: male Alpk:ApfCD-1 albino mice; conditions: cited from earlier work
R77L mouse tyrosinase = target: T1, R77L mouse tyrosinase (Mus musculus, UniProt P11344, R77L); test: Tyrosinase protein stability in CHO cells with cycloheximide, R77L; format: cell-based; conditions: 1 mM tyrosine
T1 construct: expressed in transfected cells; host or cells: CHO cells, pcDNA3.1
T1 sequence (P11344 19-533 R77L): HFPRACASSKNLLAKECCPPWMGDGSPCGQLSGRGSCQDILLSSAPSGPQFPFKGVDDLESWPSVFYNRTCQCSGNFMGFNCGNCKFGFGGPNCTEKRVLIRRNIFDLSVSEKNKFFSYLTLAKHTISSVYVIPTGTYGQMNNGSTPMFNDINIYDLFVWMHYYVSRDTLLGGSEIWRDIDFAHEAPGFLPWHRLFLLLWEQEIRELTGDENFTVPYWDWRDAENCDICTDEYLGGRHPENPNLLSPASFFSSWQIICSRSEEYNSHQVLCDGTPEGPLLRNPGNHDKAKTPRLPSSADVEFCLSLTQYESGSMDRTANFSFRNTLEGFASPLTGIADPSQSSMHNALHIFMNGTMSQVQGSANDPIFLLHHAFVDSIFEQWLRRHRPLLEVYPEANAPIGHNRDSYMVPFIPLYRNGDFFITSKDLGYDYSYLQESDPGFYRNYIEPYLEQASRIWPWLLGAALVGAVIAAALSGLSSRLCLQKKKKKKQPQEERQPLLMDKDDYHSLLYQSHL
Description: In Vitro Expression and Enzyme Activity. The expression construct of mouse Tyr was a kind gift of Dr. C. Olivares from the School of Medicine of the University of Murcia (Spain). This construct was prepared in the pcDNA3.1 expression vector (Invitrogen, Carlsbad, Calif.) using EcoRI/XbaI restriction sites and based on the mouse Tyr clone obtained as described previously in C. Olivares, et al., Biochem. J., 354:131 (2001). Constructs of tyrosinase gene mutant variants, with changes corresponding to missense mutations R77L and H420R in the mouse tyrosinase protein sequence, were created using standard methodologies (Mutagenex Inc., Piscataway, N.J.). […]
Chinese hamster ovary cells (CHO) (generous gift from Dr. J. T. Wroblewski from the Pharmacology Department, Georgetown University Medical Center, Washington D.C.) were grown at a temperature of about 37° C. in DMEM media, in the presence of 10% fetal bovine serum, 1% penicillin and 4.5 g […] per 0.5 liter of media. […] The total protein content in protein lysates was determined spectrophotometrically as a 280/260 ratio. Protein expression was analyzed by Western blotting, and GAPDH was used as an internal loading control. For the analysis, Western blots were scanned, intensities of protein bands were determined, and ratios of band intensities for the wild type or mutant variants, to that of GAPDH were calculated. […]

SMILES	Plasma tyrosine concentration ([1]; Tyr^c-2J/c-2J (OCA1a model), 4 mg/kg q.o.d. oral, after 30 days, n = 4)	Plasma tyrosine concentrations, treated vs control ([1]; Tyr^c-2J/c-2J mice, 1 mg/kg every other day by oral gavage, one month)	Tolerated NTBC dose ([2]; male Alpk:ApfCD-1 albino mice, age 3-6 weeks)	NTBC dose at which maximum plasma tyrosine concentrations were achieved ([2]; mice, toxicologic studies (Lock et al.))	Stabilization of R77L mutant tyrosinase protein relative to GAPDH (R77L mouse tyrosinase)
O=C1CCCC(=O)C1C(=O)c1ccc(C(F)(F)F)cc1[N+](=O)[O-] [NTBC, 2-(-2-nitro-4 trifluoromethylbenzoyl)-1,3 cyclohexanedione]	673 ± 73 μM (n = 4,	not statistically significantly different	up to 160 mg/kg/day	≤ 10 mg/kg	
N[C@@H](Cc1ccc(O)cc1)C(=O)O [tyrosine]					not statistically significant
